{"source": "patent US20080241280A1", "about": "“Usage of the Plant of Genus Ampelopsis and Extracts Thereof For Manufacture of Medicament and Functional Food” (priority 2004, published 2008)", "format_in_all_cases": "in vivo", "key": {"[1]": {"tested_on": "C57/B6 mice", "assay": "Low dose pentobarbital (16 mg/kg i.p.) sleep time in mice, loss of righting reflex", "details": "for mice sleep time: Table 3, sodium pentobarbital 16 mg/kg i.p.", "description": "(§1) C57/B6 mice were randomised into groups and orally administered; ECBRC-T2 (30 mg/kg), melatonin (30 mg/kg), Radix Valerianae (140 mg/kg) or vehicle (10 ml/kg H2O), 30 min prior to low dose injection of sodium pentobarbital (16 mg/kg, i/p.). The animals were then placed on a heating pad (37° C.) and their sleep latency to onset of sleep and the duration of sleep determined according to loss of righting reflex.\nC57/B6 mice were randomised into groups and orally administered ECBRC-T1 (10,50,100,500 mg/kg), 30 min prior to low dose injection of sodium pentobarbital (16 mg/kg, i/p.). The animals were then placed on a heating pad (37° C.) and their sleep latency to onset of sleep and the duration of sleep determined according to loss of righting reflex. […]\nThe animals were then placed on a heating pad (37° C.) and their sleep latency to onset of sleep and the duration of sleep determined according to loss of righting reflex."}, "[2]": {"tested_on": "C57/B6 mice", "assay": "Pentobarbital (30 mg/kg i.p.) prolonged sleeping time in mice, loss of righting reflex", "details": "30 mg/kg oral, 30 min prior to sodium pentobarbital 30 mg/kg i.p.; p<0.05, n>4", "description": "as §1, with “(30” for “(16”"}, "[3]": {"tested_on": "male C57/B6 mice", "assay": "Remote sensing (telemetric) determination of mice activities", "details": "Table 5, 20 mg/kg p.o., 6 hours after administration, control 2% EtOH", "description": "Remote sensing determination of mice activities.\nTelemetric activity and temperature monitors were surgically implanted sub-coetaneously into male C57/B6 mice under ketamie (Alfasan, batch number: 112319) and xyalsine (Alfasan, batch number: 073210) (75/10 mg/kg, i.p.) anaesthesia to remotely record activity Correct placement was determined using X-ray radiography."}}, "data": [{"smiles": "COc1ccc2[nH]cc(CCNC(C)=O)c2c1", "note": "[Melatonin, melatonin]", "values": [{"measurement": "Sleep time (min ± SEM)", "setting": "[1]; Table 1, 30 mg/kg oral, 30 min prior to sodium pentobarbital 16 mg/kg i.p.", "result": "63 ± 11", "unit": "min"}, {"measurement": "mice sleep time", "setting": "[1]; 10 mg/kg oral", "result": "31 ± 4", "unit": "n = 4"}, {"measurement": "mice sleep time", "setting": "[1]; 20 mg/kg oral", "result": "63 ± 5", "unit": "n = 6"}, {"measurement": "mice sleep time", "setting": "[1]; 30 mg/kg oral", "result": "68 ± 8", "unit": "n = 6"}, {"measurement": "sleep time compared with the vehicle control group", "setting": "[2]", "result": "significantly difference"}]}, {"smiles": "CN1CCN(C(=O)OC2c3nccnc3C(=O)N2c2ccc(Cl)cn2)CC1", "note": "(stereo not shown) [Zopiclone, zopiclone]", "values": [{"measurement": "Telemetric Activity (% sleep time ± SEM)", "setting": "[3]", "result": "66.6 ± 5.1", "unit": "%"}, {"measurement": "Telemetric Activity (% sleep time ± SEM)", "setting": "[3]; listed as zopiclone", "result": "significantly extended"}]}]}
